According to ChEMBL document CHEMBL1201862, “PubChem BioAssay data set” (2004):
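Exposure lasted 48 hours, with cells grown in 96-well plates and compounds tested at five concentrations. Abbreviation: GI50, concentration required for 50% inhibition of growth.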 The source made the active and inactive calls. Cut-off read from the data, not from the text of the source: active = GI50 up to about 1.1 µM and inactive = higher.

Legend:
Assay in all cases: growth of human tumour cells (NCI), 48 h
NCI-H460 = system: NCI-H460
PC-3 = system: PC-3
BT-549 = system: BT-549
MDA-N = system: MDA-N
SK-MEL-5 = system: SK-MEL-5
MDA-MB-231 = system: MDA-MB-231
CAKI-1 = system: CAKI-1
SN12C = system: SN12C
UO-31 = system: UO-31
IGROV-1 = system: IGROV-1
TK-10 = system: TK-10
SW-620 = system: SW-620
SR = system: SR
MDA-MB-435 = system: MDA-MB-435
HCC 2998 = system: HCC 2998
Hs-578T = system: Hs-578T
HL-60 = system: HL-60
ACHN = system: ACHN
M14 = system: M14
SF-295 = system: SF-295
U-251 = system: U-251
RXF 393 = system: RXF 393
KM12 = system: KM12
786-0 = system: 786-0
HCT-116 = system: HCT-116
SNB-19 = system: SNB-19
OVCAR-5 = system: OVCAR-5
UACC-257 = system: UACC-257
HOP-62 = system: HOP-62
K562 = system: K562
RPMI-8226 = system: RPMI-8226
NCI/ADR-RES = system: NCI/ADR-RES
UACC-62 = system: UACC-62
OVCAR-4 = system: OVCAR-4
DU-145 = system: DU-145
COLO 205 = system: COLO 205
T47D = system: T47D
NCI-H23 = system: NCI-H23
OVCAR-8 = system: OVCAR-8
SF-268 = system: SF-268
LOX IMVI = system: LOX IMVI
NCI-H226 = system: NCI-H226
MCF7 = system: MCF7
A498 = system: A498
EKVX = system: EKVX
SK-MEL-2 = system: SK-MEL-2
A549 = system: A549
OVCAR-3 = system: OVCAR-3
HCT-15 = system: HCT-15
NCI-H522 = system: NCI-H522
CCRF-CEM = system: CCRF-CEM
HOP-92 = system: HOP-92
MOLT-4 = system: MOLT-4
SK-MEL-28 = system: SK-MEL-28
HT-29 = system: HT-29
SF-539 = system: SF-539
Malme-3M = system: Malme-3M
SK-OV-3 = system: SK-OV-3
SNB-75 = system: SNB-75

## C1CNCCNCCN1
NCI-H460
  GI50: > 100 µM (inactive)
PC-3
  GI50: > 100 µM (inactive)
BT-549
  GI50: > 100 µM (inactive)
MDA-N
  GI50: > 100 µM (inactive)
SK-MEL-5
  GI50: > 100 µM (inactive)
MDA-MB-231
  GI50: > 100 µM (inactive)
CAKI-1
  GI50: > 100 µM (inactive)
SN12C
  GI50: > 100 µM (inactive)
UO-31
  GI50: > 100 µM (inactive)
IGROV-1
  GI50: > 100 µM (inactive)
TK-10
  GI50: > 100 µM (inactive)
SW-620
  GI50: > 100 µM (inactive)
SR
  GI50: > 100 µM (inactive)
MDA-MB-435
  GI50: > 100 µM (inactive)
HCC 2998
  GI50: > 100 µM (inactive)
Hs-578T
  GI50: > 100 µM (inactive)
HL-60
  GI50: > 100 µM (inactive)
ACHN
  GI50: > 100 µM (inactive)
M14
  GI50: > 100 µM (inactive)
SF-295
  GI50: > 100 µM (inactive)
U-251
  GI50: > 100 µM (inactive)
RXF 393
  GI50: > 100 µM (inactive)
KM12
  GI50: > 100 µM (inactive)
786-0
  GI50: > 100 µM (inactive)
HCT-116
  GI50: > 100 µM (inactive)
SNB-19
  GI50: > 100 µM (inactive)
OVCAR-5
  GI50: > 100 µM (inactive)
UACC-257
  GI50: > 100 µM (inactive)
HOP-62
  GI50: > 100 µM (inactive)
K562
  GI50: > 100 µM (inactive)
RPMI-8226
  GI50: > 100 µM (inactive)
NCI/ADR-RES
  GI50: > 100 µM (inactive)
UACC-62
  GI50: > 100 µM (inactive)
OVCAR-4
  GI50: > 100 µM (inactive)
DU-145
  GI50: > 100 µM (inactive)
COLO 205
  GI50: > 100 µM (inactive)
T47D
  GI50: > 100 µM (inactive)
NCI-H23
  GI50: > 100 µM (inactive)
OVCAR-8
  GI50: > 100 µM (inactive)
SF-268
  GI50: > 100 µM (inactive)
LOX IMVI
  GI50: > 100 µM (inactive)
NCI-H226
  GI50: > 100 µM (inactive)
MCF7
  GI50: > 100 µM (inactive)
A498
  GI50: > 100 µM (inactive)
EKVX
  GI50: > 100 µM (inactive)
SK-MEL-2
  GI50: > 100 µM (inactive)
A549
  GI50: > 100 µM (inactive)
OVCAR-3
  GI50: > 100 µM (inactive)
HCT-15
  GI50: > 100 µM
NCI-H522
  GI50: > 100 µM (inactive)
CCRF-CEM
  GI50: > 100 µM (inactive)
HOP-92
  GI50: > 100 µM (inactive)
MOLT-4
  GI50: > 100 µM (inactive)
SK-MEL-28
  GI50: > 100 µM (inactive)
HT-29
  GI50: > 100 µM (inactive)
SF-539
  GI50: 26.2 µM (inactive)

## O=C(COC(c1ccc(F)cc1)c1ccc(F)cc1)N1CCN(CCCc2ccccc2)CC1
NCI-H460
  GI50: 3.57 µM (inactive)
PC-3
  GI50: 3.37 µM (inactive)
BT-549
  GI50: 3.02 µM (inactive)
MDA-N
  GI50: 3.74 µM (inactive)
SK-MEL-5
  GI50: 2.65 µM (inactive)
MDA-MB-231
  GI50: 3.22 µM (inactive)
CAKI-1
  GI50: 2.05 µM (inactive)
SN12C
  GI50: 3.01 µM (inactive)
UO-31
  GI50: 1.7 µM (inactive)
IGROV-1
  GI50: 5.37 µM (inactive)
TK-10
  GI50: 5.35 µM (inactive)
SW-620
  GI50: 5.15 µM (inactive)
SR
  GI50: 3.54 µM (inactive)
MDA-MB-435
  GI50: 3.67 µM (inactive)
HCC 2998
  GI50: 3.59 µM (inactive)
Hs-578T
  GI50: 11.1 µM (inactive)
HL-60
  GI50: 3.31 µM (inactive)
ACHN
  GI50: 3.52 µM (inactive)
M14
  GI50: 4.32 µM (inactive)
SF-295
  GI50: 4.04 µM (inactive)
U-251
  GI50: 4.16 µM (inactive)
RXF 393
  GI50: 3.22 µM (inactive)
KM12
  GI50: 4.06 µM (inactive)
786-0
  GI50: 3.94 µM (inactive)
HCT-116
  GI50: 2.88 µM (inactive)
SNB-19
  GI50: 4.22 µM (inactive)
OVCAR-5
  GI50: 4.15 µM (inactive)
UACC-257
  GI50: 3.38 µM (inactive)
HOP-62
  GI50: 6.52 µM (inactive)
K562
  GI50: 3.88 µM (inactive)
RPMI-8226
  GI50: 3.39 µM (inactive)
Malme-3M
  GI50: 4.68 µM (inactive)
NCI/ADR-RES
  GI50: 2.72 µM (inactive)
UACC-62
  GI50: 4.26 µM (inactive)
OVCAR-4
  GI50: 3.24 µM (inactive)
DU-145
  GI50: 4.44 µM (inactive)
COLO 205
  GI50: 1.79 µM (inactive)
T47D
  GI50: 3.3 µM (inactive)
SK-OV-3
  GI50: 6.97 µM (inactive)
NCI-H23
  GI50: 1.76 µM (inactive)
OVCAR-8
  GI50: 3.54 µM (inactive)
SF-268
  GI50: 3.88 µM (inactive)
LOX IMVI
  GI50: 4.91 µM (inactive)
NCI-H226
  GI50: 3.01 µM (inactive)
MCF7
  GI50: 3.32 µM (inactive)
A498
  GI50: 3.08 µM (inactive)
EKVX
  GI50: 4.44 µM (inactive)
SK-MEL-2
  GI50: 3.87 µM (inactive)
A549
  GI50: 3.93 µM (inactive)
OVCAR-3
  GI50: 4.29 µM (inactive)
HCT-15
  GI50: 3.75 µM
NCI-H522
  GI50: 4.4 µM (inactive)
CCRF-CEM
  GI50: 7.62 µM (inactive)
HOP-92
  GI50: 2.55 µM (inactive)
MOLT-4
  GI50: 4.66 µM (inactive)
SK-MEL-28
  GI50: 15.6 µM (inactive)
HT-29
  GI50: 3.17 µM (inactive)
SF-539
  GI50: 5.2 µM (inactive)

## CCC(=O)Oc1c2ccsc2c(OC(=O)CC)c2ccsc12
NCI-H460
  GI50: 1.89 µM (inactive)
PC-3
  GI50: 0.339 µM (active)
BT-549
  GI50: 0.174 µM (active)
MDA-N
  GI50: 0.0555 µM (active)
SK-MEL-5
  GI50: 0.0753 µM (active)
MDA-MB-231
  GI50: 0.232 µM (active)
CAKI-1
  GI50: 2.42 µM (inactive)
SN12C
  GI50: 0.353 µM (active)
UO-31
  GI50: 0.51 µM (active)
IGROV-1
  GI50: 1.95 µM (inactive)
TK-10
  GI50: 2.25 µM (inactive)
SW-620
  GI50: 0.471 µM (active)
SNB-75
  GI50: 0.184 µM (active)
SR
  GI50: 0.297 µM (active)
MDA-MB-435
  GI50: 0.0604 µM (active)
HCC 2998
  GI50: 1.93 µM (inactive)
Hs-578T
  GI50: 0.372 µM (active)
HL-60
  GI50: 0.201 µM (active)
ACHN
  GI50: 0.419 µM (active)
M14
  GI50: 0.161 µM (active)
SF-295
  GI50: 0.254 µM (active)
U-251
  GI50: 0.389 µM (active)
RXF 393
  GI50: 1 µM (active)
KM12
  GI50: 1.8 µM (inactive)
786-0
  GI50: 2.13 µM (inactive)
HCT-116
  GI50: 0.332 µM (active)
SNB-19
  GI50: 0.54 µM (active)
OVCAR-5
  GI50: 1.88 µM (inactive)
UACC-257
  GI50: 0.171 µM (active)
HOP-62
  GI50: 0.849 µM (active)
K562
  GI50: 0.461 µM (active)
RPMI-8226
  GI50: 0.452 µM (active)
Malme-3M
  GI50: 0.039 µM (active)
NCI/ADR-RES
  GI50: 0.279 µM (active)
UACC-62
  GI50: 0.217 µM (active)
OVCAR-4
  GI50: 0.948 µM (active)
DU-145
  GI50: 0.262 µM (active)
COLO 205
  GI50: 5.51 µM (inactive)
T47D
  GI50: 1.56 µM (inactive)
SK-OV-3
  GI50: 6.62 µM (inactive)
NCI-H23
  GI50: 0.182 µM (active)
OVCAR-8
  GI50: 0.366 µM (active)
SF-268
  GI50: 0.518 µM (active)
LOX IMVI
  GI50: 0.0661 µM (active)
NCI-H226
  GI50: 2.06 µM (inactive)
MCF7
  GI50: 1.45 µM (inactive)
A498
  GI50: 3.1 µM (inactive)
EKVX
  GI50: 0.871 µM (active)
SK-MEL-2
  GI50: 0.344 µM (active)
A549
  GI50: 2.05 µM (inactive)
OVCAR-3
  GI50: 0.351 µM (active)
HCT-15
  GI50: 0.318 µM
NCI-H522
  GI50: 0.474 µM (active)
CCRF-CEM
  GI50: 0.478 µM (active)
HOP-92
  GI50: 1.42 µM (inactive)
MOLT-4
  GI50: 0.75 µM (active)
SK-MEL-28
  GI50: 0.178 µM (active)
HT-29
  GI50: 2.41 µM (inactive)
SF-539
  GI50: 0.208 µM (active)
